Experimental data reported in ChEMBL document CHEMBL3137667, “[Drug-induced liver injury; fourteenth updated edition of the bibliographic database of liver injuries and related drugs]” (Gastroenterol Clin Biol, 2004).

Legend:
[1] = Proposed mechanism(s) of liver damage. [column 'MEC' in source]; settings: human
[2] = human
[3] = human; remark: listed apart in the source
[4] = Highest frequency of acute liver toxicity observed during clinical trials, expressed as a percentage. [column '% AIGUE' in source]; settings: human
[5] = Highest frequency of moderate liver toxicity observed during clinical trials, expressed as a percentage. [column '% BIOL' in source]; settings: human
[6] = human; remark: listed apart in the source
[7] = human; remark: listed apart in the source
[8] = human; remark: listed apart in the source
[9] = human; remark: listed apart in the source
[10] = human, serum
[11] = human; remark: listed apart in the source
[12] = human, serum, 4383 h
[13] = human; remark: listed apart in the source
[14] = human; remark: listed apart in the source
[15] = human, serum; remark: listed apart in the source
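Throughout, for Hepatotoxicity (association with vascular disease): count of indexed literature references reporting vascular liver injury in humans, e.g. peliosis hepatitis, hepatic veno-occlusive disease or Budd-Chiari syndrome.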
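Throughout, for Hepatotoxicity (benign tumour): value is a count of indexed literature references citing a benign tumour confirmed by histopathology.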
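Throughout, for Hepatotoxicity (choleostasis): human cholestatic liver injury, shown by histopathology or by peak ALT or AST elevation over alkaline phosphatase ratio below 2, value counts indexed literature reports.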
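Throughout, for Hepatotoxicity (chronic liver disease): chronic liver injury confirmed by histopathology or persistently raised serum aminotransferase activity beyond 6 months, value given as the count of indexed literature references.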
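Throughout, for Hepatotoxicity (cirrhosis): value is a count of indexed literature references reporting cirrhosis confirmed by histopathology.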
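Throughout, for Hepatotoxicity (cytolytic): human cytolytic liver injury, shown by histopathology or by a ratio above 5 of peak ALT or AST elevation to alkaline phosphatase elevation, value counts indexed references.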
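Throughout, for Hepatotoxicity (granulomatous hepatitis): value is a count of indexed literature references reporting granulomatous liver disease confirmed by histopathology.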
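Throughout, for Hepatotoxicity (malignant tumour): malignant tumour confirmed by histopathology, value gives the count of indexed literature references reporting it.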
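Throughout, for Hepatotoxicity (severe hepatitis): human clinical data: severe hepatitis, meaning potentially life-threatening liver failure or clinically observed cases, the value counts how many indexed literature references report it.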
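Throughout, for Hepatotoxicity (steatosis): steatosis confirmed by histopathology, value is the count of indexed references.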

CC1(C)S[C@@H]2[C@H](NC(=O)C(c3ccccc3)S(=O)(=O)O)C(=O)N2[C@H]1C(=O)O (stereo not given in full) [SULBENICILLIN]
Hepatotoxicity (mechanism) [1]: Allergic | Hepatotoxicity (choleostasis) [2]: 2 | Hepatotoxicity (cirrhosis) [3]: 0 | Hepatotoxicity (acute) [4]: 1% | Hepatotoxicity (moderate) [5]: 6.7% | Hepatotoxicity (severe hepatitis) [6]: 0 | Hepatotoxicity (malignant tumour) [7]: 0 | Hepatotoxicity (cytolytic) [8]: 0 | Hepatotoxicity (association with vascular disease) [9]: 0 | Hepatotoxicity (acute) [10]: 3 | Hepatotoxicity (steatosis) [11]: 0 | Hepatotoxicity (chronic liver disease) [12]: 0 | Hepatotoxicity (benign tumour) [13]: 0 | Hepatotoxicity (granulomatous hepatitis) [14]: 0 | Hepatotoxicity (moderate) [15]: 3

CNCCNc1ccc2c3c(nn2CCNCCO)-c2c(O)ccc(O)c2C(=O)c13 [TELOXANTRONE]
Hepatotoxicity (mechanism) [1]: Dose-dependant | Hepatotoxicity (choleostasis) [2]: 1 | Hepatotoxicity (cirrhosis) [3]: 0 | Hepatotoxicity (acute) [4]: 10.5% | Hepatotoxicity (moderate) [5]: 36.8% | Hepatotoxicity (severe hepatitis) [6]: 0 | Hepatotoxicity (malignant tumour) [7]: 0 | Hepatotoxicity (cytolytic) [8]: 1 | Hepatotoxicity (association with vascular disease) [9]: 0 | Hepatotoxicity (acute) [10]: 1 | Hepatotoxicity (steatosis) [11]: 0 | Hepatotoxicity (chronic liver disease) [12]: 0 | Hepatotoxicity (benign tumour) [13]: 0 | Hepatotoxicity (granulomatous hepatitis) [14]: 0 | Hepatotoxicity (moderate) [15]: 2

CS(=O)(=O)c1ccc([C@@H](O)[C@@H](CO)NC(=O)C(Cl)Cl)cc1 [THIAMPHENICOL]
Hepatotoxicity (mechanism) [1]: Allergic | Hepatotoxicity (choleostasis) [2]: 0 | Hepatotoxicity (cirrhosis) [3]: 0 | Hepatotoxicity (acute) [4]: 0% | Hepatotoxicity (moderate) [5]: 0% | Hepatotoxicity (severe hepatitis) [6]: 0 | Hepatotoxicity (malignant tumour) [7]: 0 | Hepatotoxicity (cytolytic) [8]: 0 | Hepatotoxicity (association with vascular disease) [9]: 0 | Hepatotoxicity (acute) [10]: 1 | Hepatotoxicity (steatosis) [11]: 0 | Hepatotoxicity (chronic liver disease) [12]: 0 | Hepatotoxicity (benign tumour) [13]: 0 | Hepatotoxicity (granulomatous hepatitis) [14]: 0 | Hepatotoxicity (moderate) [15]: 0

O=C(Cn1c(=O)sc2ccc(Cl)cc21)N1CCN(CCO)CC1 [TIARAMIDE]
Hepatotoxicity (mechanism) [1]: Allergic | Hepatotoxicity (choleostasis) [2]: 1 | Hepatotoxicity (cirrhosis) [3]: 0 | Hepatotoxicity (acute) [4]: 0% | Hepatotoxicity (moderate) [5]: 0% | Hepatotoxicity (severe hepatitis) [6]: 0 | Hepatotoxicity (malignant tumour) [7]: 0 | Hepatotoxicity (cytolytic) [8]: 1 | Hepatotoxicity (association with vascular disease) [9]: 0 | Hepatotoxicity (acute) [10]: 1 | Hepatotoxicity (steatosis) [11]: 0 | Hepatotoxicity (chronic liver disease) [12]: 0 | Hepatotoxicity (benign tumour) [13]: 0 | Hepatotoxicity (granulomatous hepatitis) [14]: 0 | Hepatotoxicity (moderate) [15]: 0

CCOC(=O)c1c(N)sc2c1CCN(Cc1ccccc1)C2 [TINORIDINE]
Hepatotoxicity (mechanism) [1]: Allergic | Hepatotoxicity (choleostasis) [2]: 0 | Hepatotoxicity (cirrhosis) [3]: 0 | Hepatotoxicity (acute) [4]: 0% | Hepatotoxicity (moderate) [5]: 0% | Hepatotoxicity (severe hepatitis) [6]: 0 | Hepatotoxicity (malignant tumour) [7]: 0 | Hepatotoxicity (cytolytic) [8]: 0 | Hepatotoxicity (association with vascular disease) [9]: 0 | Hepatotoxicity (acute) [10]: 1 | Hepatotoxicity (steatosis) [11]: 0 | Hepatotoxicity (chronic liver disease) [12]: 0 | Hepatotoxicity (benign tumour) [13]: 0 | Hepatotoxicity (granulomatous hepatitis) [14]: 0 | Hepatotoxicity (moderate) [15]: 1

O[C@H]1[C@H]2[C@H](O)CCCN2C[C@H]1O [TRIDOLGOSIR]
Hepatotoxicity (mechanism) [1]: Dose-dependant | Hepatotoxicity (choleostasis) [2]: 0 | Hepatotoxicity (cirrhosis) [3]: 0 | Hepatotoxicity (acute) [4]: 10.5% | Hepatotoxicity (moderate) [5]: 52.6% | Hepatotoxicity (severe hepatitis) [6]: 0 | Hepatotoxicity (malignant tumour) [7]: 0 | Hepatotoxicity (cytolytic) [8]: 0 | Hepatotoxicity (association with vascular disease) [9]: 0 | Hepatotoxicity (acute) [10]: 1 | Hepatotoxicity (steatosis) [11]: 0 | Hepatotoxicity (chronic liver disease) [12]: 0 | Hepatotoxicity (benign tumour) [13]: 0 | Hepatotoxicity (granulomatous hepatitis) [14]: 0 | Hepatotoxicity (moderate) [15]: 2

CN1[C@@H]2CC[C@H]1C[C@@H](OC(=O)c1c[nH]c3ccccc13)C2 [TROPISETRON]
Hepatotoxicity (mechanism) [1]: Dose-dependant | Hepatotoxicity (choleostasis) [2]: 0 | Hepatotoxicity (cirrhosis) [3]: 0 | Hepatotoxicity (acute) [4]: 4.5% | Hepatotoxicity (moderate) [5]: 40.9% | Hepatotoxicity (severe hepatitis) [6]: 0 | Hepatotoxicity (malignant tumour) [7]: 0 | Hepatotoxicity (cytolytic) [8]: 1 | Hepatotoxicity (association with vascular disease) [9]: 0 | Hepatotoxicity (acute) [10]: 1 | Hepatotoxicity (steatosis) [11]: 0 | Hepatotoxicity (chronic liver disease) [12]: 0 | Hepatotoxicity (benign tumour) [13]: 0 | Hepatotoxicity (granulomatous hepatitis) [14]: 0 | Hepatotoxicity (moderate) [15]: 3

INTERFERON ALFA-N1
Hepatotoxicity (mechanism) [1]: Dose-dependant | Hepatotoxicity (choleostasis) [2]: 0 | Hepatotoxicity (cirrhosis) [3]: 0 | Hepatotoxicity (acute) [4]: 0% | Hepatotoxicity (moderate) [5]: 42% | Hepatotoxicity (severe hepatitis) [6]: 0 | Hepatotoxicity (malignant tumour) [7]: 0 | Hepatotoxicity (cytolytic) [8]: 0 | Hepatotoxicity (association with vascular disease) [9]: 0 | Hepatotoxicity (acute) [10]: 0 | Hepatotoxicity (steatosis) [11]: 0 | Hepatotoxicity (chronic liver disease) [12]: 0 | Hepatotoxicity (benign tumour) [13]: 0 | Hepatotoxicity (granulomatous hepatitis) [14]: 0 | Hepatotoxicity (moderate) [15]: 15
